The values below come from patent US5644059A, “1,4-dihydropyridine derivatives and methods of producing the same” (Fujirebio Inc., priority 1990, dated 1997).

In this assay the test system is platelet aggregation. In words: Test for platelet aggregation-inhibiting activity of rabbit (PAF-induced aggregation in platelet rich plasma). Particulars: rabbit PRP, 37°C, 10 minutes incubation, aggregation by PAF (10 μl); test compound concentration not given. The format is cell-based. On the set-up: dose or concentration left out as unconfirmed. How it is done: 2. Test for platelet aggregation-inhibiting activity of rabit
A blood of a rabbit (Japanese white; male; 2.5-3.0 kg) was exsanguinated from a carotid of the rabbit, and nine parts of the blood were mixed with one part of a 3.8% aqueous solution of sodium citrate. The mixture was centrifuged at 1100 rpm at 20°C. for 15 minutes. The upper layer is a platelet rich plasma (PRP), and the lower layer was centrifuged at 2500 rpm at 20° C. for 10 minutes, so that a platelet poor plasma (PPP) was obtained.
10 μl of a solution of the compound to be tested was added to 200 μl of PRP, and the mixture was subjected to incubation at 37°C. for 10 minutes. To the mixture was added 10 μl of a platelet activating factor (PAF)(10 mg/ml). The agglutination was measured by Agricometer (NKK, PAT-4A).
Consider `COC(=O)C1=C(C)NC(C)=C(C(=O)N[C@H](C(=O)OC(C)(C)C)C(C)C)C1c1cccc([N+](=O)[O-])c1` (single isomer, unassigned) [1 (Compound a)], for which the “Platelet Aggregation-Inhibiting Activity” value is listed as 42.8%.

Take `COC(=O)C1=C(C)NC(C)=C(C(=O)N[C@@H](C(=O)OC(C)(C)C)C(C)C)C1c1cccc([N+](=O)[O-])c1` (single isomer, unassigned) [2 (Compound a)]: the “Platelet Aggregation-Inhibiting Activity” value is listed as 25.5%.

Regarding `COC(=O)C1=C(C)NC(C)=C(C(=O)N[C@H](C(=O)OC(C)(C)C)C(C)C)C1c1ccccc1Cl` (single isomer, unassigned) [7 (Compound a)], the “Platelet Aggregation-Inhibiting Activity” value was 54.1%.

As to `COC(=O)C1=C(C)NC(C)=C(C(=O)N[C@H](C(=O)OC(C)(C)C)C(C)C)C1c1ccccc1F` (single isomer, unassigned) [13 (Compound a)], the “Platelet Aggregation-Inhibiting Activity” value is reported as 37.7%.

Take `COC(=O)C1=C(C)NC(C)=C(C(=O)N[C@H](C(=O)OC(C)(C)C)C(C)C)C1c1cccc(Cl)c1` (single isomer, unassigned) [18 (Compound a)]: the “Platelet Aggregation-Inhibiting Activity” value is listed as 33.8%.

Turning to `COC(=O)C1=C(C)NC(C)=C(C(=O)N[C@H](C(=O)OC(C)(C)C)C(C)C)C1c1cccc(F)c1` (single isomer, unassigned) [19 (Compound a)], the “Platelet Aggregation-Inhibiting Activity” value is 35.4%.

`COC(=O)C1=C(C)NC(C)=C(C(=O)N[C@H](C(=O)OC(C)(C)C)C(C)C)C1c1cccc(C#N)c1` (single isomer, unassigned) [22 (Compound a)]: the “Platelet Aggregation-Inhibiting Activity” value is listed as 20.2%.

`COC(=O)C1=C(C)NC(C)=C(C(=O)N[C@H](C(=O)OC(C)(C)C)C(C)C)C1c1ccccc1` (single isomer, unassigned) [24 (Compound a)]: the “Platelet Aggregation-Inhibiting Activity” value was 24.3%.

For the compound `COC(=O)C1=C(C)NC(C)=C(C(=O)N[C@H](C(=O)OC(C)(C)C)C(C)C)C1c1ccccc1[N+](=O)[O-]` (single isomer, unassigned) [27 (Compound a)], the “Platelet Aggregation-Inhibiting Activity” value was 33.3%.

For `COCCOC(=O)C1=C(C)NC(C)=C(C(=O)N[C@H](C(=O)OC(C)(C)C)C(C)C)C1c1cccc([N+](=O)[O-])c1` (single isomer, unassigned) [50 (Compound a)], the “Platelet Aggregation-Inhibiting Activity” value is 23.5%.

As to `CC1=C(C(=O)NCC(=O)OC(C)(C)C)C(c2cccc([N+](=O)[O-])c2)C(C(=O)N[C@H](C(=O)OC(C)(C)C)C(C)C)=C(C)N1` (single isomer, unassigned) [52 (Compound a)], the “Platelet Aggregation-Inhibiting Activity” value is listed as 29.2%.

With `COC(=O)C1=C(C)NC(C)=C(C(=O)N[C@@H](C(=O)OC(C)(C)C)C(C)C)C1c1cccc([N+](=O)[O-])c1` (stereo partly drawn) [2 (Compound b)], the “Platelet Aggregation-Inhibiting Activity” value is given as 98.2%.

With `COC(=O)C1=C(C)NC(C)=C(C(=O)NCC(=O)OC(C)(C)C)C1c1cccc([N+](=O)[O-])c1` (stereo not drawn) [Example 3, t-butyl 2-[N-[1,4-dihydro-2,6-dimethyl-5-methoxycarbonyl-4-(3-nitrophenyl)pyridine-3-carbonyl]amino]acetate], the “Platelet Aggregation-Inhibiting Activity” value is 100%.

As to `COC(=O)C1=C(C)NC(C)=C(C(=O)NCC(=O)OC(C)(C)C)C1c1ccccc1Cl` (stereo not drawn) [Example 8, t-butyl 2-[N-[1,4-dihydro-2,6-dimethyl-5-methoxycarbonyl-4-(2-chlorophenyl)pyridine-3-carbonyl]-amino]acetate], the “Platelet Aggregation-Inhibiting Activity” value is 39.1%.

With `COC(=O)C1=C(C)NC(C)=C(C(=O)N[C@@H](C)C(=O)OC(C)(C)C)C1c1ccccc1Cl` (stereo partly drawn) [Example 9, t-butyl 2-(S)-[N-[1,4-dihydro-2,6-dimethyl-5-methoxycarbonyl-4-(2-chlorophenyl)pyridine-3-carbonyl]amino]propionate], the “Platelet Aggregation-Inhibiting Activity” value was determined as 29.8%.

Regarding `COC(=O)C1=C(C)NC(C)=C(C(=O)N[C@H](C(=O)OC(C)(C)C)C(C)C)C1c1cccc(OC)c1` (stereo partly drawn) [Example 23, t-butyl 2-(S)-[N-[1,4-dihydro-2,6-dimethyl-5-methoxycarbonyl-4-(3-methoxyphenyl)pyridine-3-carbonyl]-amino]-3-methylbutylate], the “Platelet Aggregation-Inhibiting Activity” value was 33.6%.

`COC(=O)C1=C(C)NC(C)=C(C(=O)NCC(=O)OC(C)(C)C)C1c1cccc(Cl)c1` (stereo not drawn) [Example 32, t-butyl 2-[N-[1,4-dihydro-2,6-dimethyl-5-methoxycarbonyl-4-(3-chlorophenyl)pyridine-3-carbonyl]-amino]acetate]: the “Platelet Aggregation-Inhibiting Activity” value amounted to 100%.

For the compound `COC(=O)C1=C(C)NC(C)=C(C(=O)NCC(=O)OC(C)(C)C)C1c1ccccc1C#N` (stereo not drawn) [Example 33, t-butyl 2-[N-[1,4-dihydro-2,6-dimethyl-5-methoxycarbonyl-4-(2-cyanophenyl)pyridine-3-carbonyl]-amino]acetate], the “Platelet Aggregation-Inhibiting Activity” value worked out at 94.2%.

As for `COC(=O)C1=C(C)NC(C)=C(C(=O)NCC(=O)OC(C)(C)C)C1c1cccc(C#N)c1` (stereo not drawn) [Example 34, t-butyl 2-[N-[1,4-dihydro-2,6-dimethyl-5-methoxycarbonyl-4-(3-cyanophenyl)pyridine-3-carbonyl]-amino]acetate], the “Platelet Aggregation-Inhibiting Activity” value is reported as 100%.

Regarding `COC(=O)C1=C(C)NC(C)=C(C(=O)NCC(=O)OC(C)(C)C)C1c1cccc(C)c1` (stereo not drawn) [Example 35, t-butyl 2-[N-[1,4-dihydro-2,6-dimethyl-5-methoxycarbonyl-4-(3-methylphenyl)pyridine-3-carbonyl]-amino]acetate], the “Platelet Aggregation-Inhibiting Activity” value worked out at 32.3%.

Regarding `CCOC(=O)C1=C(C)NC(C)=C(C(=O)NCC(=O)OC(C)(C)C)C1c1cccc([N+](=O)[O-])c1` (stereo not drawn) [Example 36, t-butyl 2-[N-[1,4-dihydro-2,6-dimethyl-5-ethoxycarbonyl-4-(3-nitrophenyl)pyridine-3-carbonyl]-amino]acetate], the “Platelet Aggregation-Inhibiting Activity” value is listed as 100%.

In the case of `CC1=C(C(=O)NCC(=O)OC(C)(C)C)C(c2cccc([N+](=O)[O-])c2)C(C(=O)OC(C)C)=C(C)N1` (stereo not drawn) [Example 37, t-butyl 2-[N-[1,4-dihydro-2,6-dimethyl-5-isopropyloxycarbonyl-4-(3-nitrophenyl)pyridine-3-carbonyl]amino]acetate], the “Platelet Aggregation-Inhibiting Activity” value is 100%.

Regarding `COCCOC(=O)C1=C(C)NC(C)=C(C(=O)NCC(=O)OC(C)(C)C)C1c1cccc([N+](=O)[O-])c1` (stereo not drawn) [Example 38, t-butyl 2-[N-[1,4-dihydro-2,6-dimethyl-5-(2-methoxyethyloxycarbonyl)-4-(3-nitrophenyl)pyridine-3-carbonyl]amino]acetate], the “Platelet Aggregation-Inhibiting Activity” value is listed as 100%.

Turning to `COC(=O)C1=C(C)NC(C)=C(C(=O)NCC(=O)OC(C)(C)C)C1c1ccccc1C` (stereo not drawn) [Example 47, t-butyl 2-[N-[1,4-dihydro-2,6-dimethyl-5-methoxycarbonyl-4-(2-methylphenyl)pyridine-3-carbonyl]-amino]acetate], the “Platelet Aggregation-Inhibiting Activity” value is 32.7%.

On to `CCOC(=O)C1=C(C)NC(C)=C(C(=O)N[C@H](C(=O)OC(C)(C)C)C(C)C)C1c1cccc([N+](=O)[O-])c1` (stereo partly drawn) [Example 48, t-butyl 2-(S)-[N-[1,4-dihydro-2,6-dimethyl-5-ethoxycarbonyl-4-(3-nitrophenyl)pyridine-3-carbonyl]amino]-3-methylbutylate], for which the “Platelet Aggregation-Inhibiting Activity” value is given as 41.5%.

Consider `CC1=C(C(=O)N[C@H](C(=O)OC(C)(C)C)C(C)C)C(c2cccc([N+](=O)[O-])c2)C(C(=O)OC(C)C)=C(C)N1` (stereo partly drawn) [Example 49], for which the “Platelet Aggregation-Inhibiting Activity” value turned out to be 38.9%.

With `COC(=O)C1=C(C)NC(C)=C(C(=O)NCC(=O)N2CCCC2)C1c1cccc([N+](=O)[O-])c1` (stereo not drawn) [Example 57, methyl 1,4-dihydro-2,6-dimethyl-4-(3-nitrophenyl)-5-[N-[(pyrrolidin-1-yl)carbonylmethyl]carbamoyl]pyridine-3-carboxylate], the “Platelet Aggregation-Inhibiting Activity” value is 64.5%.

As to `COC(=O)C1=C(C)NC(C)=C(C(=O)NCC(=O)N2CCN(c3ccccc3)CC2)C1c1cccc([N+](=O)[O-])c1` (stereo not drawn) [Example 58, methyl 1,4-dihydro-2,6-dimethyl-4-(3-nitrophenyl)-5-[N-[(4-phenylpiperazinyl)carbonylmethyl]-carbamoyl]pyridine-3-carboxylate], the “Platelet Aggregation-Inhibiting Activity” value was 22.1%.

On to `COCCOC(=O)CNC(=O)C1=C(C)NC(C)=C(C(=O)OC)C1c1cccc([N+](=O)[O-])c1` (stereo not drawn) [Example 60], for which the “Platelet Aggregation-Inhibiting Activity” value is 47.2%.

As for `CCOC(=O)CNC(=O)C1=C(C)NC(C)=C(C(=O)OC)C1c1cccc([N+](=O)[O-])c1` (stereo not drawn) [Example 62, ethyl 2-[N-[1,4-dihydro-2,6-dimethyl-5-methoxycarbonyl-4-(3-nitropheny1)pyridine-3-carbonyl]amino]-acetate], the “Platelet Aggregation-Inhibiting Activity” value is reported as 64.3%.

`COC(=O)C1=C(C)NC(C)=C(C(=O)NCC(=O)OC(C)C)C1c1cccc([N+](=O)[O-])c1` (stereo not drawn) [Example 63, isopropyl 2-[N-[1,4-dihydro-2,6-dimethyl-5-methoxycarbonyl-4-(3-nitrophenyl)pyridine-3-carbonyl]-amino]acetate]: the “Platelet Aggregation-Inhibiting Activity” value was determined as 100%.

Regarding `CCOC(=O)CCNC(=O)C1=C(C)NC(C)=C(C(=O)OC)C1c1cccc([N+](=O)[O-])c1` (stereo not drawn) [Example 64, ethyl 3-[N-[1,4-dihydro-2,6-dimethyl-5-methoxycarbonyl-4-(3-nitrophenyl)pyridine-3-carbonyl]amino]-propionate], the “Platelet Aggregation-Inhibiting Activity” value is 52.6%.

Take `CCOC(=O)CN(C)C(=O)C1=C(C)NC(C)=C(C(=O)OC)C1c1cccc([N+](=O)[O-])c1` (stereo not drawn) [Example 65]: the “Platelet Aggregation-Inhibiting Activity” value stood at 42.7%.
